Legend:
[1] = test system: wheat (Triticum aestivum, variety “TRISO”); experiment: Root growth assay, wheat seed treatment; format: in vivo; conditions: Root Growth of 100 is set as the standard, wet root weight 16 days post treatment
Source text: Plant roots are a highly proliferative tissue that allows an easy accessible, cheap and short term screening method for plant growth regulators. The results obtained can easily be transferred to the overall effects on a plant of plant growth regulators identified by such a system. By using this root assay one is enabled to determine the effect of a seed treatment to root growth and/or germination and/or changes in habitat of germinated plants in order to identify the possible use as a yield enhancer. Two seeds of wheat (Triticum aestivum, variety “TRISO”) or 1 seed of maize (Zea mays, variety “LORENZO”) per hole in a plastic tray which contains an architecture of 8×13 holes were placed on compost soil covered with sand. These seeds were treated with 100 μl/hole, which creates an application volume of approx. 1200 l/ha, of a compound solution at active ingredient rates equivalent to 100, 10 and 1 g a.i./ha of each compound using an robotic application system (Lizzy Spray Robotics). Six replicates in a row of each compound and concentration were done. The outer rim of the above defined plastic tray was untreated to avoid false negative effects and the middle row (No. 7) was used as untreated control. The treated seeds were allowed to dry for approx. 4 hours and subsequently covered with sand and watered. The trays were stored in climate chambers with 14 hours lighting at a temperature of 24° C. (±2) at daytime and 16° C. (±2) at night and relative humidity (rH) of 60% and daily watered. Assessments were done 16 (±2) days post treatment by counting the germinated plants and assessing the phytotoxicity symptoms and percentage. In addition, the roots were washed out and the shoots were cut directly above the seed and the wet roots were placed on dry paper towels for approximately 30 minutes and weighted afterwards. This procedure provides a similar grade of moisture to the roots so that a comparison of the weights is possible.
The effects observed concerning Root Growth given in column 2 (Root Growth of “100” is set as the standard) are directed to concentrations that are equivalent to 100, 10, 1 g a.i./ha, each.

[2] = test system: maize (Zea mays, variety “LORENZO”); experiment: Root growth assay, maize seed treatment; format: in vivo; conditions: Root Growth of 100 is set as the standard, wet root weight 16 days post treatment
Source text: Plant roots are a highly proliferative tissue that allows an easy accessible, cheap and short term screening method for plant growth regulators. […] By using this root assay one is enabled to determine the effect of a seed treatment to root growth and/or germination and/or changes in habitat of germinated plants in order to identify the possible use as a yield enhancer. Two seeds of wheat (Triticum aestivum, variety “TRISO”) or 1 seed of maize (Zea mays, variety “LORENZO”) per hole in a plastic tray which contains an architecture of 8×13 holes were placed on compost soil covered with sand. […] Six replicates in a row of each compound and concentration were done. The outer rim of the above defined plastic tray was untreated to avoid false negative effects and the middle row (No. 7) was used as untreated control. The treated seeds were allowed to dry for approx. 4 hours and subsequently covered with sand and watered. The trays were stored in climate chambers with 14 hours lighting at a temperature of 24° C. (±2) at daytime and 16° C. (±2) at night and relative humidity (rH) of 60% and daily watered. Assessments were done 16 (±2) days post treatment by counting the germinated plants and assessing the phytotoxicity symptoms and percentage. In addition, the roots were washed out and the shoots were cut directly above the seed and the wet roots were placed on dry paper towels for approximately 30 minutes and weighted afterwards. This procedure provides a similar grade of moisture to the roots so that a comparison of the weights is possible.

| SMILES | Root Growth ([1]; 1 g a.i./ha) | Root Growth ([1]; 10 g a.i./ha) | Root Growth ([1]; 100 g a.i./ha) | Root Growth ([2]; 1 g a.i./ha) | Root Growth ([2]; 10 g a.i./ha) | Root Growth ([2]; 100 g a.i./ha) |
| --- | --- | --- | --- | --- | --- | --- |
| O=C1CCC(=O)c2ccccc2N1 [Compound 3.1] | 98 | 125 | 135 | 86 | 150 | 86 |
| COc1cc2c(cc1OC)C(=O)CCC(=O)N2 [Compound 3.2, 7,8-Dimethoxy-1H-benzazepine-2,5 (3H, 4H)-dione] | 133 | 131 | 98 | 96 | 89 | 123 |
| O=C1CCC(=O)c2cc(Cl)ccc2N1 [Compound 3.4] | 125 | 126 | 195 | 85 | 121 | 144 |
| O=C1CCC(=NNc2cc(Cl)cc(Cl)c2)c2cc(Br)ccc2N1 [Compound 4.1] |  |  |  | 131 | 102 | 136 |
| CCNC(=S)NN=C1CCC(=O)Nc2cc(OC)c(OC)cc21 [Compound 4.5] | 149 | 106 | 79 |  |  |  |
